How the values were obtained:
Format in all cases: biochemical
bacterial lipase = assay: Cleavage of NAG by bacterial lipase; settings: for Increase in the absorption at 481 nm: Bacterial lipase, 60 min, NAG 0.05 mg/ml
PLA2 from snake venom = assay: Cleavage of NAG by PLA2; settings: 60 min, NAG 0.05 mg/ml
lipases, preferably HSL = molecular target: T1, lipases, preferably HSL (Rattus norvegicus, UniProt P15304); assay: Synthesized NBD-acylglycerides as substrates of lipases
T1 sequence (P15304 1-768 isoform P15304-2): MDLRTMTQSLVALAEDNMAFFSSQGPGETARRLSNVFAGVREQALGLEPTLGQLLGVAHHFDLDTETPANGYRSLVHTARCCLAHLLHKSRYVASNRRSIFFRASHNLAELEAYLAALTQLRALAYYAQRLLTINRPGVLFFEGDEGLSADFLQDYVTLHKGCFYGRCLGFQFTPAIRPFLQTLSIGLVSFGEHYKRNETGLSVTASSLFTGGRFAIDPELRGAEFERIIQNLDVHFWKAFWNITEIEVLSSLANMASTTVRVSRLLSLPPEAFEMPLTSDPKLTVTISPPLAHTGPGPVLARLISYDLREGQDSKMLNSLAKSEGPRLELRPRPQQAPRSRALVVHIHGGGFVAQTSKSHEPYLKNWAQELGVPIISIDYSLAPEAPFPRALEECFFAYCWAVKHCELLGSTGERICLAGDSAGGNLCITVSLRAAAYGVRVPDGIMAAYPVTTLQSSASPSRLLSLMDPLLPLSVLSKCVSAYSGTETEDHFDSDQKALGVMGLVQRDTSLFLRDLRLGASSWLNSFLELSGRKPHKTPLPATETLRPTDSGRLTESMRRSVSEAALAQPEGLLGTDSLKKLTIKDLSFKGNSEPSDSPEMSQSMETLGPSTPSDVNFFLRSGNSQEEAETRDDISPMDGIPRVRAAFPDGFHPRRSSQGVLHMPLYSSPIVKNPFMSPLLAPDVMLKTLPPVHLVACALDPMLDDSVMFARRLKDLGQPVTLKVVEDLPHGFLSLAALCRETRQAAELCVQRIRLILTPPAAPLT

HSL = molecular target: T2, HSL (Rattus norvegicus, UniProt P15304); assay: Tributyrin assay; settings: Example 6, Table 6; n=5, mean±SD
T2 construct: The partially purified HSL can be stored at −70° C. for 4 to 6 weeks; from tissue; host or cells: rat epididymal fat cells (male Wistar rats)
T2 sequence (P15304 1-768 isoform P15304-2): T1 sequence (P15304 1-768 isoform P15304-2)
Description: Isolated rat fat cells are obtained from epididymal fatty tissue from untreated male rats (Wistar, 220-250 g) by collagenase treatment according to published processes. The fat cells from 10 rats are washed three times by flotation with 50 ml each of homogenization buffer ([…], pH 7.4, 0.25 M sucrose, 1 mM ethylenediamine-N,N,N′,N′-tetraacetic acid (EDTA), 1 mM dithiothreitol (DTT), 10 μg/ml of leupeptin, 10 μg/ml of antipain, 20 μg/ml of pepstatin) and finally taken up in 10 ml of homogenization buffer. The fat cells are homogenized in a Teflon-in-glass homogenizer (Braun-Melsungen) by 10 strokes at 1500 rpm and 15° C. The homogenizate is centrifuged (Sorvall SM24 tubes, 5000 rpm, 10 min, 4° C.). […]
For the preparation of the substrate, 5 μCi of [1-^14C]tributyrin (in toluene) are added to 1 ml of 20 mM unlabeled tributyrin (in acetonitrile). […] An equivalent volume (1 ml) of the upper phase is taken and the radioactivity is determined by liquid scintillation measurement.
Substances are customarily tested in four independent batches. The inhibition of the enzymatic activity of the HSL by a test substance is determined by comparison with an uninhibited control reaction. The IC50 value is calculated by means of an inhibition curve using at least 10 concentrations of the test substance. […]

## O=C(CCCCCCCCCCCNc1ccc([N+](=O)[O-])c2nonc12)OCC(O)CO (centres unmarked) [Compound (3)]
Bacterial lipase; enzyme 10 arb. units
  Increase in the absorption at 481 nm: 36 ± 7 arb. units
Bacterial lipase; enzyme 20 arb. units
  Increase in the absorption at 481 nm: 81 ± 10 arb. units
Bacterial lipase; enzyme 50 arb. units
  Increase in the absorption at 481 nm: 148 ± 18 arb. units
Bacterial lipase; enzyme 75 arb. units
  Increase in the absorption at 481 nm: 238 ± 29 arb. units
Bacterial lipase; enzyme 100 arb. units
  Increase in the absorption at 481 nm: 341 ± 39 arb. units
Bacterial lipase; enzyme 150 arb. units
  Increase in the absorption at 481 nm: 467 ± 57 arb. units
Bacterial lipase; enzyme 200 arb. units
  Increase in the absorption at 481 nm: 748 ± 70 arb. units
Bacterial lipase; enzyme 250 arb. units
  Increase in the absorption at 481 nm: 904 ± 83 arb. units
Bacterial lipase; enzyme 300 arb. units
  Increase in the absorption at 481 nm: 1056 ± 143 arb. units
Bacterial lipase; enzyme 400 arb. units
  Increase in the absorption at 481 nm: 1270 ± 187 arb. units
Bacterial lipase; bacterial lipase, conditions optimized for HSL
  Activity relative to HSL: 25%
PLA2 from snake venom; PLA2, enzyme 10 arb. units
  Increase in the absorption at 481 nm: 1 ± 1 arb. units
PLA2 from snake venom; PLA2, enzyme 20 arb. units
  Increase in the absorption at 481 nm: 3 ± 2 arb. units
PLA2 from snake venom; PLA2, enzyme 50 arb. units
  Increase in the absorption at 481 nm: 5 ± 1 arb. units
PLA2 from snake venom; PLA2, enzyme 75 arb. units
  Increase in the absorption at 481 nm: 8 ± 2 arb. units
PLA2 from snake venom; PLA2, enzyme 100 arb. units
  Increase in the absorption at 481 nm: 10 ± 2 arb. units
PLA2 from snake venom; PLA2, enzyme 150 arb. units
  Increase in the absorption at 481 nm: 26 ± 6 arb. units
PLA2 from snake venom; PLA2, enzyme 200 arb. units
  Increase in the absorption at 481 nm: 35 ± 9 arb. units
PLA2 from snake venom; PLA2, enzyme 250 arb. units
  Increase in the absorption at 481 nm: 46 ± 12 arb. units
PLA2 from snake venom; PLA2, enzyme 300 arb. units
  Increase in the absorption at 481 nm: 54 ± 9 arb. units
PLA2 from snake venom; PLA2, enzyme 400 arb. units
  Increase in the absorption at 481 nm: 75 ± 11 arb. units
lipases, preferably HSL
  Activity as substrate of lipases: “best” substrate

## O=C(CCCCCCCCCCCNc1ccc([N+](=O)[O-])c2nonc12)OCC(O)CO (racemic) [Compound 3]
HSL
  IC50: > 100 µM
